Laboratory results from patent US20190275012A9, “SUBSTITUTED THIAZOLO-PYRIDINE COMPOUNDS AS MALT1 INHIBITORS” (Lupin Limited, priority 2016, published 2019).

Legend:
[1] = tested on: NF-kB transcriptional activity in HEK-293-NF-kB-Luc cell line overexpressing MALT1; test: NF-kB reporter assay (luciferase, MALT1 stably overexpressed); type: cell-based; conditions: Homo sapiens, 24 h, HEK-293-NF-kB-Luc cells stably overexpressing MALT1, 24 h treatment, Bright Glo luminescence; read-out: NF-kB inhibition IC50
Summary of the method: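 HEK-293-NF-κB-Luc cells stably overexpressing MALT1 were seeded overnight, then exposed to test compounds for 24 h. Bright Glo added 10 min at ambient temperature and luminescence read; % inhibition calculated against 0.1% DMSO controls.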

full length MALT1 enzyme = molecular target: T1, full length MALT1 enzyme (Homo sapiens, UniProt Q9UDY8); test: MALT1 biochemical assay (fluorescence based, Ac-Leu-Arg-Ser-Arg-AMC cleavage); conditions: full length MALT1 protein, 2 h pre-incubation at RT, tetrapeptide substrate Ac-Leu-Arg-Ser-Arg-AMC, read-out: Malt 1 inhibition IC50
T1 construct: a fluorescence based assay with full length MALT1 enzyme
T1 sequence (Q9UDY8 1-824): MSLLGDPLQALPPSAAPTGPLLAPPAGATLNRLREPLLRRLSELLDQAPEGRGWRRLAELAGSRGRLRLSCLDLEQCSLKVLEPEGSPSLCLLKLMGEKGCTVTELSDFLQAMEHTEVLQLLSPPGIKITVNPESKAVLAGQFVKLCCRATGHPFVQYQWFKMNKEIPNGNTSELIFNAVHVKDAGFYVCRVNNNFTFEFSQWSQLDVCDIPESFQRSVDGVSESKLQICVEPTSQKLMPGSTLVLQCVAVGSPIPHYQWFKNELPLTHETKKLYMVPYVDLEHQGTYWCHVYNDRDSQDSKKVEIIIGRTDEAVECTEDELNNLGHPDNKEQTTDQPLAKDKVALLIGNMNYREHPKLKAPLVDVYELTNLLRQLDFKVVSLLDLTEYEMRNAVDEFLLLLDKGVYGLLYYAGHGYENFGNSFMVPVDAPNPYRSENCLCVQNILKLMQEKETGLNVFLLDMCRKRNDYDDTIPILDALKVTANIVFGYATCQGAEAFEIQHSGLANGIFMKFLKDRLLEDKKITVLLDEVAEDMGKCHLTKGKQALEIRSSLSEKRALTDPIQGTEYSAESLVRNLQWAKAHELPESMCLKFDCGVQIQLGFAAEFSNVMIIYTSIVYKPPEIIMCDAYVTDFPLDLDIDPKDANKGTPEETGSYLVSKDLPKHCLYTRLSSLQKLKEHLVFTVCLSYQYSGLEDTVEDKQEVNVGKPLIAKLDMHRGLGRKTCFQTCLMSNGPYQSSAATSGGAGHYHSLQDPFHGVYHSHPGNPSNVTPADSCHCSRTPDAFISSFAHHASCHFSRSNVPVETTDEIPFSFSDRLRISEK
Summary of the method: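 Full-length MALT1 (100-300 ng/well) was pre-incubated with compound for 2 h at RT, then 100 μM Ac-LRSR-AMC was added for 4-12 h. Buffer was 50 mM MES, 150 mM NaCl, 0.1% CHAPS, 1 M ammonium citrate, 10 mM DTT, pH 7, with 0.5% DMSO. IC50 was derived from AMC fluorescence (ex 360/em 460 nm).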

OCI-Ly-10 cells = test: Anticancer assay (14 days), cell viability by CCK-8; type: cell-based; conditions: Homo sapiens, OCI-Ly10, 336 h, 14 days treatment, fresh treatment every 5th day, CCK-8 viability, read-out: Ly-10 (14d) inhibition IC50
Procedure: OCI-Ly-10 cells (UHN, Canada) seeded in culture media (IMDM+20% FBS) in 96-well plates were treated with various concentrations of the test compounds. Cells were treated for a period of 14 days (13-15 days depending on the confluency of cells) with fresh treatments every 5th day. After the first treatment, for all subsequent treatments, the cells were centrifuged, the spent media was removed and fresh media containing the test compound was added. Cell viability was assessed using CCK-8 kit (Dojindo Laboratories, China) as per manufacturer's instructions. Plates were read in colorimeter and absorbance was detected. (Detection at 450 nm; Background correction at 650 nm). % inhibition was calculated relative to the samples containing media with 0.1% DMSO alone as per the following formula

| Compound | IC50 (full length MALT1 enzyme) [nM] | IC50 (OCI-Ly-10 cells) [nM] | IC50 [1] [nM] |
| --- | --- | --- | --- |
| COc1ncc(NC(=O)Nc2cnc3sc(C)nc3c2C(C)C)cc1Cl [Compound 119, 1-(5-Chloro-6-methoxypyridin-3-yl)-3-(7-isopropyl-2-methylthiazolo[5,4-b]pyridin-6-yl)urea] | 1 to 50 | 251 to 500 | 101 to 500 |
| COC(C)c1c(NC(=O)Nc2cnc(-n3cccn3)c(Cl)c2)cnc2sc(C)nc12 (single isomer, unassigned) [Compound 196b, (S) or (R)-1-(5-chloro-6-(1H-pyrazol-1-yl)pyridin-3-yl)-3-(7-(1-methoxyethyl)-2-methylthiazolo[5,4-b]pyridin-6-yl)urea] | 1 to 50 | 26 to 100 | – |
| COC(C)c1c(NC(=O)Nc2ccc(-n3cccn3)c(Cl)c2)cnc2sc(C)nc12 (single isomer, unassigned) [Compound 201b, (S) or (R)-1-(3-Chloro-4-(1H-pyrazol-1-yl)phenyl)-3-(7-(1-methoxyethyl)-2-methylthiazolo[5,4-b]pyridin-6-yl)urea] | 1 to 50 | 26 to 100 | – |
| Cc1nc2c(C3CCCO3)c(NC(=O)Nc3cnc(-n4nccn4)c(Cl)c3)cnc2s1 (single isomer, unassigned) [Compound 136b, 1-(5-Chloro-6-(2H-1,2,3-triazol-2-yl)pyridin-3-yl)-3-(2-methyl-7-(tetrahydrofuran-2-yl)thiazolo[5,4-b]pyridin-6-yl)urea] | – | 101 to 250 | 1 to 100 |
| CCC(c1c(NC(=O)Nc2cnc(-n3nccn3)c(C(F)(F)F)c2)cnc2sc(C)nc12)N(C)C (stereo not shown) [Compound 75a, 1-(6-(2H-1,2,3-Triazol-2-yl)-5-(trifluoromethyl)pyridin-3-yl)-3-(7-(1-(dimethylamino)propyl)-2-methylthiazolo[5,4-b]pyridin-6-yl)urea] | – | 501 to 1500 | 101 to 500 |
| COCCN(c1c(NC(=O)Nc2cnc(-n3nccn3)c(C(F)(F)F)c2)cnc2sc(C)nc12)C1CC1 [Compound 69, 1-(6-(2H-1,2,3-Triazol-2-yl)-5-(trifluoromethyl)pyridin-3-yl)-3-(7-(cyclopropyl (2-methoxyethyl)amino)-2-methylthiazolo[5,4-b]pyridin-6-yl)urea] | – | 101 to 250 | 1 to 100 |
| COc1ccc(Cl)cc1NC(=O)Nc1cnc2sc(C)nc2c1C(C)OC (single isomer, unassigned) [Compound 128b, 1-(5-Chloro-2-methoxyphenyl)-3-(7-(1-methoxyethyl)-2-methylthiazolo[5,4-b]pyridin-6-yl)urea] | 51 to 100 | 26 to 100 | – |
| COC(C)c1c(NC(=O)Nc2cnc(-n3nccn3)c(C(F)F)c2)cnc2sc(C)nc12 (single isomer, unassigned) [Compound 205b, (S) or (R)-1-(5-(Difluoromethyl)-6-(2H-1,2,3-triazol-2-yl)pyridin-3-yl)-3-(7-(1-methoxyethyl)-2-methylthiazolo[5,4-b]pyridin-6-yl)urea] | – | 101 to 250 | 101 to 500 |
| COC(C)c1c(NC(=O)Nc2ccc(-c3nnco3)c(Cl)c2)cnc2sc(C)nc12 (single isomer, unassigned) [Compound 203b, (S) or (R)-1-(3-Chloro-4-(1,3,4-oxadiazol-2-yl)phenyl)-3-(7-(1-methoxyethyl)-2-methylthiazolo[5,4-b]pyridin-6-yl)urea] | – | 26 to 100 | 1 to 100 |
| COCCN(C)c1c(NC(=O)Nc2cnc(-n3nccn3)c(Cl)c2)cnc2sc(C)nc12 [Compound 44, 1-(5-Chloro-6-(2H-1,2,3-triazol-2-yl)pyridin-3-yl)-3-(7-((2-methoxyethyl)(methyl)amino)-2-methylthiazolo[5,4-b]pyridin-6-yl)urea] | – | 101 to 250 | 101 to 500 |
| COC(c1c(NC(=O)Nc2cnc(-n3nccn3)c(Cl)c2)cnc2sc(C)nc12)C(C)C (stereo not shown) [Compound 79a, 1-(5-Chloro-6-(2H-1,2,3-triazol-2-yl)pyridin-3-yl)-3-(7-(1-methoxy-2-methylpropyl)-2-methylthiazolo[5,4-b]pyridin-6-yl)urea] | – | 101 to 250 | 101 to 500 |
| COC(c1c(NC(=O)Nc2cnc(-n3nccn3)c(Cl)c2)cnc2sc(C)nc12)C1CCC1 (stereo not shown) [Compound 225b, 1-(5-Chloro-6-(2H-1,2,3-triazol-2-yl)pyridin-3-yl)-3-(7-(cyclobutyl(methoxy)methyl)-2-methylthiazolo[5,4-b]pyridin-6-yl)urea] | – | 26 to 100 | 1 to 100 |
| COC(c1c(NC(=O)Nc2cnc(-n3nccn3)c(Cl)c2)cnc2sc(C)nc12)C(C)(C)C (single isomer, unassigned) [Compound 56b, 1-(5-chloro-6-(2H-1,2,3-triazol-2-yl)pyridin-3-yl)-3-(7-(1-methoxy-2,2-dimethylpropyl)-2-methylthiazolo[5,4-b]pyridin-6-yl)urea] | 1 to 50 | 26 to 100 | – |

More lines, main results first:

| IC50 (full length MALT1 enzyme) [nM] | IC50 (OCI-Ly-10 cells) [nM] | Compound | IC50 [1] [nM] |
| --- | --- | --- | --- |
| 1 to 50 | 26 to 100 | COCCN(c1c(NC(=O)Nc2cnc(-n3nccn3)c(Cl)c2)cnc2sc(C)nc12)C1CC1 [Compound 49, 1-(5-Chloro-6-(2H-1,2,3-triazol-2-yl)pyridin-3-yl)-3-(7-(cyclopropyl(2-methoxyethyl)amino)-2-methylthiazolo[5,4-b]pyridin-6-yl)urea] | 1 to 100 |
| 1 to 50 | 26 to 100 | CCOC(C)c1c(NC(=O)Nc2cnc(-n3nccn3)c(C(F)(F)F)c2)cnc2sc(C)nc12 (single isomer, unassigned) [Compound 165b, 1-(6-(2H-1,2,3-Triazol-2-yl)-5-(trifluoromethyl)pyridin-3-yl)-3-(7-(1-ethoxyethyl)-2-methylthiazolo[5,4-b]pyridin-6-yl)urea] | 1 to 100 |
| 1 to 50 | 26 to 100 | CCC(C)c1c(NC(=O)Nc2cnc(-n3nccn3)c(Cl)c2)cnc2sc(C)nc12 (single isomer, unassigned) [Compound 157b, 1-(7-(sec-Butyl)-2-methylthiazolo[5,4-b]pyridin-6-yl)-3-(5-chloro-6-(2H-1,2,3-triazol-2-yl)pyridin-3-yl)urea] | – |
| 1 to 50 | 0.1 to 25 | CCC(OC)c1c(NC(=O)Nc2cnc(-n3nccn3)c(C(F)(F)F)c2)cnc2sc(C)nc12 (single isomer, unassigned) [Compound 146b, 1-(6-(2H-1,2,3-Triazol-2-yl)-5-(trifluoromethyl)pyridin-3-yl)-3-(7-(1-methoxypropyl)-2-methylthiazolo[5,4-b]pyridin-6-yl)urea] | – |
| 1 to 50 | 26 to 100 | COc1ncc(NC(=O)Nc2cnc3sc(C)nc3c2C(C)OC)cc1Cl (single isomer, unassigned) [Compound 159a, 1-(5-Chloro-6-methoxypyridin-3-yl)-3-(7-(1-methoxyethyl)-2-methylthiazolo[5,4-b]pyridin-6-yl)urea] | – |
| 1 to 50 | 0.1 to 25 | COC(c1c(NC(=O)Nc2cnc(-n3nccn3)c(C(F)(F)F)c2)cnc2sc(C)nc12)C1CC1 (single isomer, unassigned) [Compound 151b, 1-(6-(2H-1,2,3-Triazol-2-yl)-5-(trifluoromethyl)pyridin-3-yl)-3-(7-(cyclopropyl(methoxy)methyl)-2-methylthiazolo[5,4-b]pyridin-6-yl)urea] | – |
| 1 to 50 | 0.1 to 25 | COc1cc(-n2nccn2)c(Cl)cc1NC(=O)Nc1cnc2sc(C)nc2c1C(C)OC (single isomer, unassigned) [Compound 131b, 1-(5-Chloro-2-methoxy-4-(2H-1,2,3-triazol-2-yl)phenyl)-3-(7-(1-methoxyethyl)-2-methylthiazolo[5,4-b]pyridin-6-yl)urea] | – |
